# In ChEMBL document CHEMBL3632588 (Medchemcomm, 2015):
# Tests used:
# [1] = Cytotoxicity in mouse NMuMG cells assessed as cell growth at 20 uM after 72 hrs by colorimetry; type: cell-based; settings: read-out: Activity
# [2] = Antiproliferative activity against mouse B16F0 cells assessed as cell growth at 20 uM after 72 hrs by colorimetry; type: functional; settings: B16F0, 72 h, read-out: Activity
# [3] = Antiproliferative activity against mouse B16F0 cells after 72 hrs by colorimetry; type: functional, cell-based; settings: B16F0, 72 h
# [4] = tested on: MCF7; test: Ratio of IC50 for mouse NMuMG cells to IC50 for human MCF7 cells
# [5] = Ratio of IC50 for mouse NMuMG cells to IC50 for mouse […] cells
# [6] = tested on: HeLa; test: Ratio of IC50 for mouse NMuMG cells to IC50 for human HeLa cells
# [7] = Ratio of IC50 for mouse NMuMG cells to IC50 for mouse B16F0 cells
# [8] = Antiproliferative activity against mouse LM3 cells after 72 hrs by colorimetry; type: functional, cell-based; settings: LM3, 72 h
# [9] = tested on: MCF7; test: Antiproliferative activity against human MCF7 cells assessed as cell growth at 20 uM after 72 hrs by colorimetry; type: functional; settings: MCF7, 72 h, read-out: Activity
# [10] = tested on: HeLa; test: Antiproliferative activity against human HeLa cells after 72 hrs by colorimetry; type: functional, cell-based
# [11] = Antiproliferative activity against mouse LM3 cells assessed as cell growth at 20 uM after 72 hrs by colorimetry; type: functional; settings: LM3, 72 h, read-out: Activity
# [12] = tested on: MCF7; test: Antiproliferative activity against human MCF7 cells after 72 hrs by colorimetry; type: functional, cell-based; settings: MCF7, 72 h
# [13] = Cytotoxicity in mouse NMuMG cells after 72 hrs by colorimetry; type: cell-based
# [14] = tested on: HeLa; test: Antiproliferative activity against human HeLa cells assessed as cell growth at 20 uM after 72 hrs by colorimetry; type: functional; settings: read-out: Activity
SMILES,"viability at 72 h, 20 µM [1]",growth at 20 µM [2],IC50 [3],Ratio IC50 [4],Ratio IC50 [5],Ratio IC50 [6],Ratio IC50 [7],IC50 [8],growth at 20 µM [9],IC50 [10],growth at 20 µM [11],IC50 [12],IC50 [13],growth at 20 µM [14]
COC(=O)[C@@H]1N2C(=O)C(Br)(Br)[C@H]2S(=O)(=O)[C@@]1(C)CCl,35%,–,–,–,–,–,–,–,–,–,–,–,–,–
COC(=O)[C@@H]1N2C(=O)C(Br)(Br)[C@H]2S[C@@]1(C)CSc1nc(-c2ccccc2)c(-c2ccccc2)o1,55%,38%,11 µM,1.7,2.2,4.4,2.8,14 µM,27%,7 µM,35%,18 µM,31 µM,7%
COC(=O)[C@@H]1N2C(=O)[C@H](Cl)[C@H]2S[C@@]1(C)CSc1nc2ccccc2s1,55%,48%,18 µM,–,1.8,2,2,20 µM,66%,18 µM,55%,–,36 µM,44%
COC(=O)[C@@H]1N2C(=O)[C@H](Cl)[C@H]2S[C@@]1(C)CSc1nc(-c2ccccc2)c(-c2ccccc2)o1,55%,65%,–,–,–,2.5,–,–,87%,13 µM,65%,–,32 µM,27%
COC(=O)[C@@H]1N2C(=O)[C@H](Cl)[C@H]2S[C@@]1(C)CSc1nc2ccccc2o1,65%,68%,–,–,–,–,–,–,84%,–,87%,–,–,68%
CCOc1ccc2nc(SC[C@]3(C)S[C@@H]4[C@@H](Cl)C(=O)N4[C@H]3C(=O)OC)sc2c1,64%,52%,27 µM,–,1.8,1.8,1.6,24 µM,65%,24 µM,49%,–,43 µM,56%
COC(=O)[C@@H]1N2C(=O)[C@H](Cl)[C@H]2S[C@@]1(C)CSC1=NCCS1,65%,71%,–,–,2,2.2,–,20 µM,87%,19 µM,54%,–,41 µM,48%
CCOc1ccc2nc(SC[C@@]3(C)[C@H](C(=O)OC)N4C(=O)[C@H](Cl)[C@H]4S3(=O)=O)sc2c1,8%,–,–,–,–,–,–,–,–,–,–,–,–,–
